Converted amounts (≈) assume the structure as drawn.
Legend:
Test in all cases: MIC, broth-microdilution (CLSI VET01-A4)
Type in all cases: cell-based
[1] = test system: Mannheimia haemolytica MH 13093 (XB0472-6014.1, BRD field isolate)
Procedure: (§1) The Minimum inhibitory concentrations (MIC) of compounds according to the invention for a number of veterinary bacterial pathogens were determined by the broth-microdilution method according to CLSI document VET01-A4.
(§2) Microdilution trays containing a doubling dilution series of the test compound were used for the tests. The MIC results were interpreted according to the CLSI documents VET01-S3. The lowest concentration of compound at which no visible growth (i.e. no turbidity) detected by the unaided eye was recorded as the MIC.

[2] = test system: Pasteurella multocida PM 6391 (ATCC 43137, reference strain); conditions: Pasteurella multocida PM 6391
Procedure: as §1, §2
(§3) The Minimum inhibitory concentrations (MIC) of compounds according to the invention were determined by the broth-microdilution method according to CLSI document VET01-A4.
(§4) Microdilution trays containing a doubling dilution series of the test compound were used for the tests.
(§5) The MIC results were interpreted according to the CLSI documents VET01-S3. The lowest concentration of compound at which no visible growth (i.e. no turbidity) detected by the unaided eye was recorded as the MIC.

[3] = test system: Mannheimia haemolytica MH 12587 (1071, BRD field isolate, macrolide-resistance: erm+, E+); conditions: Mannheimia haemolytica MH 12587, macrolide-resistant
Procedure: as §1, §2, §3, §4, §5

[4] = test system: Pasteurella multocida PM 6267 (P 2225 (L386), reference strain, mouse infection strain); conditions: Pasteurella multocida PM 6267
Procedure: as §1, §2, §3, §4, §5

[5] = test system: Pasteurella multocida PM 12080 (IV102277-0093, BRD field isolate); conditions: Pasteurella multocida PM 12080
Procedure: as §1, §2, §3, §4, §5

[6] = test system: Mannheimia haemolytica MH 6374 (ATCC 33396, reference strain); conditions: Mannheimia haemolytica MH 6374; for MIC: read-out: MIC MH 6374
Procedure: as §1, §2, §3, §4, §5

[7] = test system: Mannheimia haemolytica MH 10720 (154, BRD field isolate); conditions: Mannheimia haemolytica MH 10720
Procedure: as §1, §2, §3, §4, §5

[8] = test system: Mannheimia haemolytica MH 6357 (M7/2, reference strain, cattle infection strain); conditions: Mannheimia haemolytica MH 6357; for MIC: read-out: MIC MH 6357
Procedure: as §1, §2, §3, §4, §5

Row | Structure (SMILES) | MIC [1] | MIC PM 6391 [2] | MIC MH 12587 [3] | MIC PM 6267 [4] | MIC PM 12080 [5] | MIC [6] | MIC MH 10720 [7] | MIC [8] | MIC MH 6374 [6] | MIC MH 6357 [8] | MIC ([7]; read-out: MIC MH 10720)
1 | CC(O)C(NC(=O)c1ccc(C#CC#CC=CCN2CCC(c3ccccc3)CC2)cc1)C(=O)NO (centres unmarked) [Compound 448] | 1.6 µM (≈ 0.777 µg/mL) | <=0.1 μM | 1.6 µM (≈ 0.777 µg/mL) | <=0.1 μM | <=0.1 μM | 0.4 µM (≈ 0.194 µg/mL) | <=0.1 μM | 0.8 µM (≈ 0.388 µg/mL) | – | – | –
2 | CC(O)C(NC(=O)c1ccc(C#CC#CC=CCNCc2cccs2)cc1)C(=O)NO (centres unmarked) [Compound 464] | 0.8 µM (≈ 0.35 µg/mL) | <=0.1 μM | 0.8 µM (≈ 0.35 µg/mL) | <=0.1 μM | <=0.1 μM | 0.2 µM (≈ 0.0875 µg/mL) | <=0.1 μM | 0.4 µM (≈ 0.175 µg/mL) | – | – | –
3 | C=C(C)CNCc1ccc(C#Cc2ccc(C(=O)N[C@H](C(=O)NO)[C@@H](C)O)cc2)s1 [Compound 476] | 0.4 µM (≈ 0.171 µg/mL) | <=0.1 μM | 0.8 µM (≈ 0.342 µg/mL) | <=0.1 μM | <=0.1 μM | – | <=0.1 μM | 0.2 µM (≈ 0.0855 µg/mL) | <=0.1 μM | – | –
4 | CSCCNCc1ccc(C#Cc2ccc(C(=O)N[C@H](C(=O)NO)[C@@H](C)O)cc2)s1 [Compound 482] | 0.8 µM (≈ 0.358 µg/mL) | <=0.1 μM | 0.8 µM (≈ 0.358 µg/mL) | <=0.1 μM | <=0.1 μM | 0.4 µM (≈ 0.179 µg/mL) | <=0.1 μM | 0.2 µM (≈ 0.0895 µg/mL) | – | – | –
5 | Cc1cnc(CNCc2ccc(C#Cc3ccc(C(=O)N[C@H](C(=O)NO)[C@@H](C)O)cc3)cn2)o1 [Compound 495] | 1.6 µM (≈ 0.742 µg/mL) | <=0.1 μM | 1.6 µM (≈ 0.742 µg/mL) | <=0.1 μM | <=0.1 μM | 1.6 µM (≈ 0.742 µg/mL) | <=0.1 μM | 0.4 µM (≈ 0.185 µg/mL) | – | – | –
6 | C[C@@H](O)[C@H](NC(=O)c1ccc(C#Cc2ccc(CN3CC=CC3)s2)cc1)C(=O)NO [Compound 478] | 0.2 µM (≈ 0.0851 µg/mL) | <=0.1 μM | 0.4 µM (≈ 0.17 µg/mL) | <=0.1 μM | <=0.1 μM | – | <=0.1 μM | – | <=0.1 μM | <=0.1 μM | –
7 | CC(O)C(NC(=O)c1ccc(C#CC#CC=CCNCc2cccnc2)cc1)C(=O)NO (centres unmarked) [Compound 460] | 1.6 µM (≈ 0.692 µg/mL) | <=0.1 μM | 1.6 µM (≈ 0.692 µg/mL) | <=0.1 μM | <=0.1 μM | 0.8 µM (≈ 0.346 µg/mL) | – | 0.8 µM (≈ 0.346 µg/mL) | – | – | –
8 | Cc1cnc(CNCc2ccc(C#Cc3ccc(C(=O)N[C@H](C(=O)NO)[C@@H](C)O)cc3)cc2)o1 [Compound 474] | 0.8 µM (≈ 0.37 µg/mL) | <=0.1 μM | 0.8 µM (≈ 0.37 µg/mL) | <=0.1 μM | <=0.1 μM | 0.4 µM (≈ 0.185 µg/mL) | <=0.1 μM | 0.2 µM (≈ 0.0925 µg/mL) | – | – | –
9 | C[C@@H](O)[C@H](NC(=O)c1ccc(C#Cc2ccc(CNCC(F)(F)F)nc2)cc1)C(=O)NO [Compound 487] | 1.6 µM (≈ 0.721 µg/mL) | <=0.1 μM | 1.6 µM (≈ 0.721 µg/mL) | <=0.1 μM | <=0.1 μM | 1.6 µM (≈ 0.721 µg/mL) | <=0.1 μM | 0.4 µM (≈ 0.18 µg/mL) | – | – | –
10 | C#CCNCc1ccc(C#Cc2ccc(C(=O)N[C@H](C(=O)NO)[C@@H](C)O)cc2)s1 [Compound 479] | 0.8 µM (≈ 0.329 µg/mL) | <=0.1 μM | 0.8 µM (≈ 0.329 µg/mL) | <=0.1 μM | <=0.1 μM | 0.2 µM (≈ 0.0823 µg/mL) | <=0.1 μM | – | – | <=0.1 μM | –
11 | C[C@@H](O)[C@H](NC(=O)c1ccc(C#Cc2ccc(CNCC(F)(F)F)s2)cc1)C(=O)NO [Compound 477] | 0.4 µM (≈ 0.182 µg/mL) | <=0.1 μM | 0.4 µM (≈ 0.182 µg/mL) | <=0.1 μM | <=0.1 μM | 0.2 µM (≈ 0.0911 µg/mL) | <=0.1 μM | – | – | <=0.1 μM | –
12 | C[C@@H](O)[C@H](NC(=O)c1ccc(C#Cc2ccc(CNCc3ccc(F)cc3)cc2)cc1)C(=O)NO [Compound 475] | 0.8 µM (≈ 0.38 µg/mL) | <=0.1 μM | 0.8 µM (≈ 0.38 µg/mL) | <=0.1 μM | <=0.1 μM | 0.4 µM (≈ 0.19 µg/mL) | – | 0.2 µM (≈ 0.0951 µg/mL) | – | – | –
13 | Cc1cnc(CNCc2ccc(C#Cc3ccc(C(=O)N[C@H](C(=O)NO)[C@@H](C)O)cc3)s2)o1 [Compound 484] | 0.8 µM (≈ 0.375 µg/mL) | <=0.1 μM | 0.8 µM (≈ 0.375 µg/mL) | <=0.1 μM | <=0.1 μM | 0.4 µM (≈ 0.187 µg/mL) | <=0.1 μM | 0.2 µM (≈ 0.0937 µg/mL) | – | – | –
14 | CSCCNCc1ccc(C#Cc2ccc(C(=O)N[C@H](C(=O)NO)[C@@H](C)O)cc2)cc1 [Compound 472] | 1.6 µM (≈ 0.706 µg/mL) | <=0.1 μM | 1.6 µM (≈ 0.706 µg/mL) | <=0.1 μM | <=0.1 μM | 0.8 µM (≈ 0.353 µg/mL) | <=0.1 μM | 0.4 µM (≈ 0.177 µg/mL) | – | – | –
15 | CC(O)C(NC(=O)c1ccc(C#CC#CC=CCN(C)Cc2ccccc2)cc1)C(=O)NO (centres unmarked) [Compound 452] | 0.8 µM (≈ 0.356 µg/mL) | <=0.1 μM | 0.8 µM (≈ 0.356 µg/mL) | <=0.1 μM | <=0.1 μM | 0.4 µM (≈ 0.178 µg/mL) | – | 0.2 µM (≈ 0.0891 µg/mL) | – | – | –
16 | C=C(C)CNCc1ccc(C#Cc2ccc(C(=O)N[C@H](C(=O)NO)[C@@H](C)O)cc2)cn1 [Compound 486] | 1.6 µM (≈ 0.676 µg/mL) | <=0.1 μM | 1.6 µM (≈ 0.676 µg/mL) | <=0.1 μM | <=0.1 μM | 1.6 µM (≈ 0.676 µg/mL) | – | 0.8 µM (≈ 0.338 µg/mL) | – | – | 0.2 µM (≈ 0.0845 µg/mL)
17 | CC(O)C(NC(=O)c1ccc(C#CC#CC=CCNCc2ccc(Cl)cc2)cc1)C(=O)NO (centres unmarked) [Compound 453] | 1.6 µM (≈ 0.745 µg/mL) | <=0.1 μM | 1.6 µM (≈ 0.745 µg/mL) | <=0.1 μM | <=0.1 μM | 0.4 µM (≈ 0.186 µg/mL) | <=0.1 μM | 1.6 µM (≈ 0.745 µg/mL) | – | – | –
18 | C#CCNCc1ccc(C#Cc2ccc(C(=O)N[C@H](C(=O)NO)[C@@H](C)O)cc2)cn1 [Compound 490] | 1.6 µM (≈ 0.65 µg/mL) | <=0.1 μM | 1.6 µM (≈ 0.65 µg/mL) | – | <=0.1 μM | 0.8 µM (≈ 0.325 µg/mL) | <=0.1 μM | 0.4 µM (≈ 0.163 µg/mL) | – | – | –

From US20230000813A1, “COMPOUND FOR THE TREATMENT OF BOVINE OR SWINE RESPIRATORY DISEASE” (Intervet Inc., priority 2016, published 2023)
